Literature values in patent US20070135390A1, “Phosphate derivatives” (priority 2003, published 2007).

Conditions: printed as in vitro use

In the case of “Phenol, 2,6-bis(1-methylethyl)-, dihydrogen phosphate (9CI) [propofol phosphate]”, the induction of anesthesia is listed as “does not however induce anesthesia”.
